Results reported in patent US11384069B2, “Diphenylaminopyrimidine compound for inhibiting kinase activity” (Shenzhen TargetRx, Inc., priority 2018, dated 2022).

Tests used:
BaF3-EpoR-JAK2 cells = test: Cytotoxicity assay, BaF3-EpoR-JAK2 cells (CellTiter-Glo); assay type: cell-based; details: 72 h; 3 days incubation, 1 ng/ml IL-3, CellTiter-Glo
Description: The inhibitory effects of example compounds on the activity of BaF3-EpoR-JAK2 and BaF3-EpoR-JAK2/V617F cells were determined.
Materials and reagents: RPMI-1640 medium (GIBCO, Cat. No. A10491-01), fetal bovine serum (GIBCO, Cat. No. 10099-141), antibiotics (GIBCO, Cat. No. 10010-031), IL-3 (CST, Cat. No. 8923SF), phosphate buffer solution PBS (GIBCO, Cat. No. 10010-0312), penicillin-streptomycin (GIBCO, Cat. No. 15140-122);
Cell lines: BaF3-EpoR-JAK2 cells (Pharmaron), BaF3-EpoR-JAK2/V617F cells (Pharmaron), live cell assay kit CellTiter-Glo4 (Promega, Cat. No. G7572), 96-well black-wall clear flat-bottom cell culture plate (Corning, Cat. No. 3340).
(§1) Assay method: 1. Preparation of cell plates. BaF3-EpoR-JAK2 cells and BaF3-EpoR-JAK2/V617F cells were seeded in 96-well plates, respectively, and 1 ng/ml IL-3 was added to Ba/F3 cells. The cell plates were placed in a carbon dioxide incubator for overnight culture. 2. The test compounds were dissolved in DMSO and subjected to 3-fold gradient dilution, 9 compound concentrations were obtained in duplicate. 3. Treatments of Cells with Compounds. The compounds were transferred to cell plates, and the starting concentration of the compounds is 10 μM. The cell plates were incubated in a carbon dioxide incubator for 3 days. 4. Detection. A CellTiter-Glo reagent was added to the cell plates and incubated for 30 minutes at room temperature to stabilize the luminescence signal. Reading was obtained using a PerkinElmer Envision multi-label analyzer.

[1] = system: BaF3-EpoR-JAK2/V617F cells; test: Cytotoxicity assay, BaF3-EpoR-JAK2/V617F cells (CellTiter-Glo); assay type: cell-based; details: 72 h; 3 days incubation, 1 ng/ml IL-3, CellTiter-Glo
Description: as §1, with “BaF3-EpoR-JAK2 cells and BaF3-EpoR-JAK2/V617F cells were seeded in 96-well plates, respectively, and 1 ng/ml IL-3 was added to Ba/F3 cells.” left out

[2] = Metabolic stability evaluation, human liver microsome experiment; assay type: in vitro ADME; details: liver microsomes, pH 7.4, 1 μM compound, 0.5 mg/mL protein, 37° C.; for half-life at 1 μM: read-out: Human liver microsome experiment t1/2
Description: (§2) Microsomal experiment: human liver microsomes: 0.5 mg/mL, Xenotech; rat liver microsomes: 0.5 mg/mL, Xenotech; mouse liver microsomes: 0.5 mg/mL, Xenotech; coenzyme (NADPH/NADH): 1 mM, Sigma Life Science; magnesium chloride: 5 mM, 100 mM phosphate buffer (pH 7.4).
(§3) Preparation of a stock solution: A certain amount of the powder of the example compounds was accurately weighed and dissolved in DMSO to a 5 mM concentration.
(§4) Preparation of phosphate buffer (100 mM, pH 7.4): 150 mL of a pre-prepared 0.5 M potassium dihydrogen phosphate and 700 mL of a pre-prepared 0.5 M dipotassium hydrogen phosphate were mixed. The mixture was then adjusted to pH 7.4 with a 0.5 M dipotassium hydrogen phosphate solution. The mixture was diluted 5-fold with ultrapure water before use, and magnesium chloride was added to obtain a phosphate buffer (100 mM) containing 100 mM potassium phosphate, 3.3 mM magnesium chloride, and a pH of 7.4.
(§5) A solution of NADPH regeneration system (containing 6.5 mM NADP, 16.5 mM G-6-P, 3 U/mL G-6-P D, 3.3 mM magnesium chloride) was prepared and placed on wet ice before use.
(§6) Preparation of a stop solution: an acetonitrile solution containing 50 ng/mL propranolol hydrochloride and 200 ng/mL tolbutamide (internal standard). 25057.5 μL of phosphate buffer (pH 7.4) was added into a 50 mL centrifuge tube, 812.5 μL of human liver microsomes, rat liver microsomes and mouse liver microsomes were then added into the 50 mL centrifuge tube, respectively, and the mixtures were mixed evenly to obtain liver microsome dilutions with a protein concentration of 0.625 mg/mL. Incubation of samples: The stock solutions of the corresponding compounds were diluted to 0.25 mM with an aqueous solution containing 70% acetonitrile, respectively, and used as working solutions ready for use. 398 μL of dilutions of human liver microsomes or rat liver microsomes or mouse liver microsome were added to 96-well incubation plates (N=2), and then 2 μL of 0.25 mM working solutions were added and mixed, respectively.
(§7) Determination of metabolic stability: 300 μL of a pre-cooled stop solution was added to each well of a 96-well deep well plate and placed on ice as a stop plate. The 96-well incubation plate and the NADPH regeneration system were placed in a 37° C. water bath, shaken at 100 rpm, and pre-incubated for 5 min. 80 μL of an incubation solution was taken from each well of the incubation plate and added to the stop plate, mixed evenly, and replenished with 20 μL of NADPH regeneration system solution as a 0 min sample. 80 μL of NADPH regeneration system solution was then added to each well of the incubation plate to start the reaction, and timing was started. […] 100 μL of the reaction solution was taken at 10, 30, and 90 min after reaction, respectively, added to the stop plate, and vortexed for 3 minutes to terminate the reaction. The stop plate was centrifuged for 10 min at 5000×g at 4° C. 100 μL of the supernatant was added to a 96-well plate to which 100 μL of distilled water was previously added, mixed evenly, and analyzed by LC-MS/MS.
(§8) Data analysis: The peak areas of the corresponding compounds and internal standard were detected by LC-MS/MS system, and the ratio of the peak areas of the compounds to the internal standard was calculated.

[3] = Metabolic stability evaluation, rat liver microsome experiment; assay type: in vitro ADME; details: liver microsomes, pH 7.4, 1 μM compound, 0.5 mg/mL protein, 37° C.; for half-life at 1 μM: read-out: Rat liver microsome experiment t1/2
Description: as §2, §3, §4, §5, §6, §7, §8

[4] = Metabolic stability evaluation, mouse liver microsome experiment; assay type: in vitro ADME; details: liver microsomes, pH 7.4, 1 μM compound, 0.5 mg/mL protein, 37° C.; for half-life at 1 μM: read-out: Mouse liver microsome experiment t1/2
Description: as §2, §3, §4, §5, §6, §7, §8

[5] = Rat pharmacokinetic experiment; assay type: in vivo; details: male Sprague-Dawley rats, single dose 3 mg/kg intravenously, 10 mg/kg orally
Description: 6 male Sprague-Dawley rats (7-8 weeks old, and weighted approximately 210 g) were divided into 2 groups with 3 rats in each group. The rats were intravenously or orally administered a single dose of compound (3 mg/kg intravenously, 10 mg/kg orally) to compare pharmacokinetic differences.
The rats were raised on standard food and water. Fasting was started 16 hours before the test. The drug was dissolved with PEG400 and dimethyl sulfoxide. The blood samples were collected from eyelids at the time points of 0.083 hours, 0.25 hours, 0.5 hours, 1 hour, 2 hours, 4 hours, 6 hours, 8 hours, 12 hours, and 24 hours after administration.
Rats were briefly anesthetized after inhalation of diethyl ether and 300 μL of blood sample was collected from the eyelids into test tubes. There was 30 μL of 1% heparin salt solution in the test tube. Tubes were dried at 60° C. overnight before use. After the blood sample was collected at the last time point, the rats were sacrificed after ether anesthesia.
Immediately after the collection of the blood sample, the test tube was gently inverted at least 5 times to ensure sufficient mixing and then placed on ice. […] The concentration of the compound disclosed herein in plasma was determined by LC-MS/MS. The pharmacokinetic parameters were calculated based on the drug concentration in blood of each animal at different time points.

## [2H]C([2H])(Oc1ccc(Nc2ncc(C)c(Nc3cccc(S(=O)(=O)NC(C)(C)C)c3)n2)cc1)C([2H])([2H])N1CCCC1 [Compound T-1, N-(tert-butyl)-3-((5-methyl-2-((4-(2-(pyrrolidin-1-yl)ethoxy-1,1,2,2-d4)phenyl)amino)pyrimidin-4-yl)amino)benzenesulfonamide]
BaF3-EpoR-JAK2 cells
  IC50: 536 nM
[1]
  IC50: 206 nM
[2]
  microsomal CLint at 1 μM: 6.8 µL/min/mg
  half-life at 1 μM: 203 min
[3]
  microsomal CLint at 1 μM: 73.9 µL/min/mg
  half-life at 1 μM: 18.7 min
[4]
  microsomal CLint at 1 μM: 157 µL/min/mg
  half-life at 1 μM: 8.8 min

## [2H]c1nc(Nc2ccc(OCCN3CCCC3)cc2)nc(Nc2cccc(S(=O)(=O)NC(C)(C)C)c2)c1C([2H])([2H])[2H] [Compound T-2, N-(tert-butyl)-3-((5-(methyl-d3)-2-((4-(2-(pyrrolidin-1-yl)ethoxy)phenyl)amino)pyrimidin-4-yl-6-d)amino)benzenesulfonamide]
BaF3-EpoR-JAK2 cells
  IC50: 725 nM
[1]
  IC50: 196 nM
[4]
  microsomal CLint at 1 μM: 174 µL/min/mg
  half-life at 1 μM: 8 min

## [2H]C([2H])([2H])C(C)(NS(=O)(=O)c1cccc(Nc2nc(Nc3ccc(OCCN4CCCC4)cc3)ncc2C)c1)C([2H])([2H])[2H] [Compound T-3, 3-((5-methyl-2-((4-(2-(pyrrolidin-1-yl)ethoxy)phenyl)amino)pyrimidin-4-yl)amino)-N-(2-methylpropan-2-yl-1,1,1,3,3,3-d6)benzenesulfonamide]
BaF3-EpoR-JAK2 cells
  IC50: 604 nM
[1]
  IC50: 244 nM
[3]
  microsomal CLint at 1 μM: 80.4 µL/min/mg
  half-life at 1 μM: 17.2 min
[4]
  microsomal CLint at 1 μM: 206 µL/min/mg
  half-life at 1 μM: 6.7 min

## [2H]C([2H])([2H])C(NS(=O)(=O)c1cccc(Nc2nc(Nc3ccc(OCCN4CCCC4)cc3)ncc2C)c1)(C([2H])([2H])[2H])C([2H])([2H])[2H] [Compound T-4, 3-((5-methyl-2-((4-(2-(pyrrolidin-1-yl)ethoxy)phenyl)amino)pyrimidin-4-yl)amino)-N-(2-(methyl-d3)propan-2-yl-1,1,1,3,3,3-d6)benzenesulfonamide]
BaF3-EpoR-JAK2 cells
  IC50: 587 nM
[1]
  IC50: 238 nM
[3]
  microsomal CLint at 1 μM: 76.6 µL/min/mg
  half-life at 1 μM: 18.1 min
[4]
  microsomal CLint at 1 μM: 194 µL/min/mg
  half-life at 1 μM: 7.1 min

## [2H]C1([2H])N(CCOc2ccc(Nc3ncc(C)c(Nc4cccc(S(=O)(=O)NC(C)(C)C)c4)n3)cc2)C([2H])([2H])C([2H])([2H])C1([2H])[2H] [Compound T-5, N-(tert-butyl)-3-((5-methyl-2-((4-(2-(pyrrolidin-1-yl-d8)ethoxy)phenyl)amino)pyrimidin-4-yl)amino)benzenesulfonamide]
BaF3-EpoR-JAK2 cells
  IC50: 690 nM
[1]
  IC50: 269 nM
[2]
  microsomal CLint at 1 μM: 11.5 µL/min/mg
  half-life at 1 μM: 121 min
[3]
  microsomal CLint at 1 μM: 77 µL/min/mg
  half-life at 1 μM: 18 min
[4]
  microsomal CLint at 1 μM: 158 µL/min/mg
  half-life at 1 μM: 8.8 min
[5]
  Oral availability: 7.48%

## Cc1cnc(Nc2ccc(OCCN3CCCC3)cc2)nc1Nc1cccc(S(=O)(=O)NC(C)(C)C)c1 [Fedratinib, N-(tert-butyl)-3-((5-methyl-2-((4-(2-(pyrrolidin-1-yl)ethoxy)phenyl)amino)pyrimidin-4-yl)amino)benzenesulfonamide, reference compound]
BaF3-EpoR-JAK2 cells
  IC50: 653 nM
[1]
  IC50: 211 nM
[2]
  microsomal CLint at 1 μM: 12.5 µL/min/mg
  half-life at 1 μM: 111 min
[3]
  microsomal CLint at 1 μM: 81.3 µL/min/mg
  half-life at 1 μM: 17 min
[4]
  microsomal CLint at 1 μM: 238 µL/min/mg
  half-life at 1 μM: 5.8 min
[5]
  Oral availability: 7.24%
